In experiment [1] the test system is JEG-3 cells. The note with it: Biol. Reprod. (2007) 76: 203-10; cited from earlier work.
For experiment [2], the system named is JEG-3 cells. Put plainly: [3H]-thymidine incorporation in JEG-3 cells (JEG-3 protocol). The format is cell-based. The note with it: FIG. 4. On the procedure:
In JEG-3 cells (choriocarcinoma cell line) leptin is able to stimulate proliferation up to 3 fold (Biol. Reprod. (2007) 76: 203-10). […] The radioactivity incorporated by the cells is an index of their proliferative activity and is measured in counts per minute (CPM) with a liquid scintillation beta counter.
This finding can be applied to test whether a compound is able to either reproduce the effect of leptin on cell proliferation (leptin receptor agonist mimetic) (i.e., a given compound will cause an increase in incorporated [^3H]-Thymidine by the cells) or to inhibit the effect of leptin (antagonistic effect) by preventing the leptin-mediated increase in [^3H]-thymidine incorporation.
On the technique in general: Uptake of a labelled nucleoside into DNA is a usual measure of proliferation.

As to “leptin: hormone synthesized in fat cells that is believed to act in the hypothalamus to reduce food intake and body weight”, in experiment [1], the stimulation of proliferation result is reported as “up to 3 fold”. For the same substance, the EC50 in experiment [2] (JEG-3 cells (choriocarcinoma cell line), read-out: EC50, increase in [3H]-thymidine incorporation) is 2.1 nM. Also, in experiment [2] (JEG-3 cells), the “concentration of maximal effect on [3H]-thymidine incorporation” value is given as 100 nM.

Values taken from patent publication US20110275638A1, “PIPERAZINE DERIVATIVES AND THEIR USE AS LEPTIN RECEPTOR MODULATORS” (priority 2008, published 2011).
